Some test systems named below: BT-549 breast; HT29 colon; K-562 leukemia; NCI-H23 lung; OVCAR-5 ovarian; OVCAR-8 ovarian; SF-268 CNS; SF-295 CNS; SK-MEL-2 melanoma; TK-10 renal.
Holding throughout (assay): inhibition of tumour cell growth, NCI panel, 48 h

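These data come from cells grown in 96-well plates and exposed to compound for 48 hours at five concentrations. Here, GI50 denotes the concentration required for 50% inhibition of growth. TGI is the concentration that stops growth completely.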

As for `CCCCc1n(Cc2ccc3ccccc3n2)cc[n+]1Cc1ccc2ccccc2c1`, the GI50 in the assay on BT-549 breast is 0.648 µM; with HT29 colon, 0.592 µM; in the assay with K-562 leukemia it was 0.359 µM; in the assay on NCI-H23 lung it was 0.508 µM; with OVCAR-5 ovarian, 1.54 µM; in the assay on OVCAR-8 ovarian it was 1.03 µM. In addition, the GI50 in the assay with SF-268 CNS is 0.984 µM; in the assay with SF-295 CNS, 1.37 µM; in the assay on SK-MEL-2 melanoma, 0.977 µM; in the assay with TK-10 renal it was 1.49 µM. The TGI came to 1.74 µM in the assay on BT-549 breast; 2.85 µM in the assay on HT29 colon; 2.36 µM with K-562 leukemia; 3.98 µM in the assay on NCI-H23 lung; 8.48 µM in the assay with OVCAR-5 ovarian; 3.17 µM with OVCAR-8 ovarian. The TGI came to 2.92 µM in the assay on SF-268 CNS, 4.4 µM with SF-295 CNS, 2.64 µM in the assay on SK-MEL-2 melanoma and 3.69 µM with TK-10 renal.
`CCCCCC/C=C\CCCCCCCCCc1cccc(OC)c1O`: the TGI in the assay with BT-549 breast, with HT29 colon, in the assay with K-562 leukemia, with NCI-H23 lung, with OVCAR-5 ovarian and in the assay on OVCAR-8 ovarian was more than 100 µM in each case. Also, the TGI in the assay on SF-268 CNS, with SF-295 CNS, in the assay on SK-MEL-2 melanoma and in the assay with TK-10 renal was more than 100 µM each time.
For the molecule `O=C1c2ccccc2-c2c1c1ccc3ccccc3c1n2-c1ccccc1`, the GI50 with BT-549 breast is 44.7 µM; with HT29 colon, more than 100 µM; with K-562 leukemia, more than 100 µM; in the assay with NCI-H23 lung, 56.8 µM; with OVCAR-5 ovarian, 29.2 µM; in the assay with OVCAR-8 ovarian, 23 µM. Also, the GI50 in the assay on SF-268 CNS was 20 µM; in the assay on SF-295 CNS it was 22.9 µM; with SK-MEL-2 melanoma, more than 100 µM; in the assay with TK-10 renal, 20.6 µM. The TGI is more than 100 µM in the assay with BT-549 breast; more than 100 µM in the assay on HT29 colon; more than 100 µM in the assay on K-562 leukemia; more than 100 µM with NCI-H23 lung; more than 100 µM in the assay on OVCAR-5 ovarian; 54.7 µM with OVCAR-8 ovarian. For the same molecule, the TGI in the assay with SF-268 CNS is 52.3 µM; in the assay with SF-295 CNS, 67.4 µM; with SK-MEL-2 melanoma, more than 100 µM; in the assay with TK-10 renal, 44.7 µM.
With `COC(=O)C[C@@H]1CC=CC(=O)/C1=C(O)/C=C/c1ccccc1`, the GI50 is 1.48 µM in the assay on BT-549 breast; 0.268 µM in the assay with HT29 colon; 0.364 µM with K-562 leukemia; 0.7 µM in the assay with NCI-H23 lung; 1.84 µM in the assay on OVCAR-5 ovarian; 0.602 µM with OVCAR-8 ovarian. In addition, the GI50 in the assay on SF-268 CNS is 1.37 µM; with SF-295 CNS, 2.05 µM; with SK-MEL-2 melanoma, 1.63 µM; in the assay with TK-10 renal it was 0.916 µM. Also, the TGI in the assay with BT-549 breast came out at 2.86 µM; in the assay with HT29 colon it was 0.774 µM; in the assay on NCI-H23 lung, 2.13 µM; in the assay with OVCAR-5 ovarian, 4.57 µM; in the assay with OVCAR-8 ovarian, 3.76 µM; with SF-268 CNS it was 3.75 µM. The TGI in the assay with SF-295 CNS came to 4.42 µM; with SK-MEL-2 melanoma, 3.56 µM; in the assay on TK-10 renal, 5.69 µM.
With `COc1ccccc1CNC(=O)/C=C/c1ccc(O)c(O)c1`, the GI50 in the assay with BT-549 breast is 40.2 µM; in the assay with HT29 colon, 50.5 µM; in the assay on K-562 leukemia, 39.6 µM; with NCI-H23 lung it was 77.6 µM; in the assay on OVCAR-5 ovarian, more than 100 µM; in the assay on OVCAR-8 ovarian, 75.7 µM. Besides, the GI50 is 90.7 µM in the assay on SF-268 CNS, more than 100 µM in the assay on SF-295 CNS, more than 100 µM in the assay with SK-MEL-2 melanoma and 17.9 µM with TK-10 renal. The TGI in the assay with BT-549 breast, with HT29 colon, in the assay with K-562 leukemia, in the assay with NCI-H23 lung, in the assay with OVCAR-5 ovarian and in the assay on OVCAR-8 ovarian was more than 100 µM throughout. Besides, the TGI with SF-268 CNS, in the assay with SF-295 CNS, in the assay on SK-MEL-2 melanoma and in the assay with TK-10 renal was more than 100 µM throughout.
For `C=CC(=O)N1CCC(CNc2ncnc(N)c2-c2ccc(Oc3ccccc3)cc2)CC1`, the GI50 in the assay on BT-549 breast is 20.3 µM; in the assay with HT29 colon, 30.7 µM; with K-562 leukemia, 22.5 µM; in the assay with NCI-H23 lung, 29.8 µM; in the assay with OVCAR-5 ovarian, 46.7 µM; in the assay on OVCAR-8 ovarian, 27.5 µM. In addition, the GI50 in the assay on SF-268 CNS is 26.6 µM; in the assay with SF-295 CNS it was 29 µM; with SK-MEL-2 melanoma, 19.3 µM; with TK-10 renal, 21.4 µM. For the same molecule, the TGI with BT-549 breast is 70.1 µM; with HT29 colon, more than 100 µM; in the assay with K-562 leukemia, more than 100 µM; in the assay with NCI-H23 lung it was more than 100 µM; with OVCAR-5 ovarian, more than 100 µM; in the assay with OVCAR-8 ovarian it was more than 100 µM. Also, the TGI is more than 100 µM in the assay on SF-268 CNS, more than 100 µM with SF-295 CNS, 42 µM in the assay with SK-MEL-2 melanoma and more than 100 µM in the assay with TK-10 renal.
